# Measured values reported in US20240207282A1, “METHOD OF INCREASING CHAPERONE MEDIATED AUTOPHAGY BY STABILIZING THE INTERACTION OF RETINOIC ACID RECEPTOR-ALPHA AND AN INHIBITOR” (ALBERT EINSTEIN COLLEGE OF MEDICINE, priority 2021, published 2024).
# What was measured:
# [1] = system: NIH3T3; test: Intracellular proteolysis of long half-life proteins (3H-leucine); assay type: cell-based, mouse; conditions: 10 μM; duration of increase after addition
# Description: Proteolysis was calculated from aliquots of the medium taken at different times and precipitated in trichloroacetic acid, as the amount of acid-precipitable radioactivity transformed to acid-soluble radioactivity at each time.
# [2] = In vitro solubility by nephelometry; assay type: physicochemical
# Description: (§1) In vitro solubility in the following conditions A) HBSS/HEPES 10 mM/BSA 0.1% pH 6 B) HBSS/HEPES 10 mM/BSA 0.1% pH 7.4 C) TRIS/BSA 0.1% PBS (pH 7.4 and at indicated doses were measured by Nephelometry using the NEPHELOstar Galaxy apparatus (BMG Lab Technologies). In vitro stability in human, mouse and rat liver microsomes and permeability using a bidirectional permeability assay with CaCo-2 cells (pH 6.5/7.4) assays were performed with standard methodology and analyzed by LC-MS/MS. at SIMM-SERVIER joint Biopharmacy Laboratory. In silico ADME properties calculated by QikProp (Schrodinger, LLC) analysis and ADME predictions for CA39 (left) and CA77 (right).
# [3] = Bidirectional permeability assay with CaCo-2 cells; assay type: in vitro ADME
# Description: as §1
# [4] = system: rd10 mice; test: rd10 mouse retinal degeneration, single intravitreal injection; assay type: in vivo
# Description: Cryosections and immunofluorescence: Cryosections and immunofluorescence in retinal sections were performed as previously described 10. Primary antibodies used in this study were Transducin (Santacruz Biotechnologies) and Opsin R/G (Millipore). Sections were visualized by confocal microscopy (TCS SP5; Leica Microsystems). ONL thickness and outer segment length quantification: For ONL thickness quantification, DAPI images were taken at 40× in a fluorescence microscope Multidimensional system Leica AF6000 LX coupled to DMI600B microscope and Hamamatsu CCD 9100-02 camera. At least two sections per animal were analyzed, preferably central sections. Eight images per retina equally distributed along the retina were acquired. Three measures were taken per image and ratio ONL/INL quantified with ImageJ tools. Leica LAS-X was used for image acquisition and ImageJ (v.2.1.0) was used for image processing. For OS length measures, fixed positions common to all pictures were considered and OS length was measured using ImageJ straight line tool.
# [5] = system: neuron-related cells; test: CMA activity, KFERQ-PS-Dendra reporter in neuron-related cells; assay type: cell-based, mouse; conditions: for CMA activation: neuronal-related mouse cells
# Description: Cells: NIH3T3 mouse fibroblasts and the N2a neuroblastoma cell line were obtained from the American Type Culture Collection and were validated by genomic PCR. Primary human fibroblasts (GM01651) were from Coriell Repository. All the cells lines were tested for mycoplasma contamination using DNA staining protocol with Hoechst 33258 dye. Knock-down of NCoR1 was done using lentiviral mediated shRNA (SHCLNG-NM_011308) from the Sigma Mission library following standard procedures. Efficiency of knock-down was tested by immunoblot. Cell viability was measured using the CellTiter-Blue kit (Promega) 24 h after the addition of the different stressors according to manufacturer's instructions.
# CMA activity: Cells were transduced with lentivirus carrying the KFERQ-PS-Dendra reporter as before. Cells were photoactivated by exposure to a 3.5 mA (current constant) light emitting diode (LED: Norlux, 405 nm) for 3 min and then plated in glass-bottom 96 well plates. At the desired times, cells were fixed with 4% PFA and imaged using high-content microscopy (Operetta system, Perkin Elmer). Images were quantified using the manufacturer's software in a minimum of 1,200 cells in 9 independent fields per well. […] To avoid con-funding effects for drug-induced changes in cell volume or adherence to the plate that could bring a fraction of the cells per field outside of focus, we set a threshold to count only cells that have at least 1/10 of the average number of […] detected in the untreated wells for each cell type (3-4 puncta/cell in the case of NIH3T3 and N2a cells and 5 puncta/cell in primary human fibroblasts). […] Slices were mounted in DAPI-Fluoromount-G to highlight the cell nucleus and allow quantification of puncta per cell. Images were acquired in x-y-z planes with an Axiovert 200 fluorescence microscope (Carl Zeiss Ltd) with a ×63 objective and 1.4 numerical aperture, mounted with an ApoTome.2 slider or with a Confocal microscope (TCS SP5; Leica) using an HCX Plan Apo CS×63.0 1.40 NA oil objective and the Leica Application Suite X (LAS X).
membrane permeability [3],Structure (SMILES),intracellular rates of degradation of long-lived proteins [1],solubility [2],vision ([4]; 7 days after single intravitreal injection),"retinal ONL/INL ratio, OS and ONL preservation ([4]; 7 days after single intravitreal injection (40 μM) at P18)",gliosis ([4]; single intravitreal injection (40 μM) at P18),CMA activation after removal of compound ([5]; compound removed from the media),CMA activation [5]
highly membrane permeable,CC(=O)Nc1ccc(C2=Nc3ccc(Cl)cc3OC2)cc1 [CA77],remained upregulated 24 h after adding,reasonable solubility,preserved vision,thicker retinal ONL/INL ratio and better OS and ONL preservation,significantly improved,persisted and even further increased after the compound was removed from the media,efficiently activate CMA
,Clc1ccc2c(c1)OCC(c1ccc(-c3ccccc3)cc1)=N2 [CA39],remained upregulated 24 h after adding,reasonable solubility,,,,,efficiently activate CMA
